Experimental data reported in PMC5303819, “Cryptic bioactivity capacitated by synthetic hybrid plant peptides” (Nature Communications, 2017).
Blank lines part the entries; values can stand above or below the substance they belong to.

Tests used:
[1] = tested on: Arabidopsis thaliana root; experiment: Root-shortening assay (root length); type: in vivo; conditions: for root-shortening activity: 1 μM peptide, 14-day-old root length, Fig. 1b, n=13-20; for CLV3-type activity: root 1 µM (stele 10 µM), Supplementary Fig. 8
Protocol: (§1) For root-length measurement, plants were germinated and grown vertically on half-strength Murashige and Skoog (MS) medium supplemented with 1% sucrose and peptide/control solution at 22 °C under continuous light. To observe the RAM, 4-day-old roots were excised and mounted in clearing solution (chloral hydrate/glycerol/water=8:1:2) before imaging with light microscope (Axio Imager.A2, Zeiss).

hypocotyl stele = experiment: Stele-thickening assay (hypocotyl stele width); type: in vivo, Arabidopsis thaliana; conditions: for effect on stele radial growth / stele width: 10 μM peptide, liquid medium, 10-day-old hypocotyl, Fig. 1e,f
Protocol: (§2) For the observation of stele and leaf vein, seeds were germinated and cultured with shaking at 110 r.p.m. at 22 °C under continuous light in liquid half-strength MS medium supplemented with 1% sucrose and peptide/control solution. 10-day-old seedlings were fixed in a 1:3 mixture of acetic acid/ethanol, washed with water and mounted in clearing solution (chloral hydrate/glycerol/water=8:1:2) before imaging with a light microscope (Axio Imager.A2, Zeiss).

[2] = target: T1, CLV1 ectodomain (CLV1-HT) (Arabidopsis thaliana, UniProt Q9SYQ8); experiment: Photo-affinity labelling with [125I]ASA-KIN, CLV1; type: binding
T1 construct: applied it to the membrane fractions containing receptor ectodomains expressed in tobacco cells; made in house; host or cells: tobacco BY-2 cells (microsomal fraction)
T1 sequence (Q9SYQ8 25-638 limits assumed): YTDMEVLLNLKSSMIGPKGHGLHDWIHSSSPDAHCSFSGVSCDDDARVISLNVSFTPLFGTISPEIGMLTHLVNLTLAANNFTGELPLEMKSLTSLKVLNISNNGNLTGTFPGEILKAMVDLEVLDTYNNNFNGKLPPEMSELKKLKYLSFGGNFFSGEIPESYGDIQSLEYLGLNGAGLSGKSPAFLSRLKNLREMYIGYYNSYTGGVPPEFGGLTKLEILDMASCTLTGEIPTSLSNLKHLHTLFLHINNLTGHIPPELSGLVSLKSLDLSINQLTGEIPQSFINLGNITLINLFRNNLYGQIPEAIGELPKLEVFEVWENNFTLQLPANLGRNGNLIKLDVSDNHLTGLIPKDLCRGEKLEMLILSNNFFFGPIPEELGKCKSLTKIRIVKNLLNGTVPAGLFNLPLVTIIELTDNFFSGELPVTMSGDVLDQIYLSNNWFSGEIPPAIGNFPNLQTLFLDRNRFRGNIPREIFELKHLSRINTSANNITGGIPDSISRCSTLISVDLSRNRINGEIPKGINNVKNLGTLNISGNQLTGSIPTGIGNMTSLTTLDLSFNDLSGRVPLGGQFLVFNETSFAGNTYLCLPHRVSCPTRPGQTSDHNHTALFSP
Protocol: (§3) Aliquots (1,000 μg) of microsomal proteins for Halo-tagged receptors (CLV1-HT[10], TDR-HT[7] and CLV2-HT[20]) from tobacco BY-2 cells were suspended in 250 μl binding buffer (50 mM MES-KOH pH 5.5 with 100 mM sucrose) containing 30 nM [^125I]ASA-KIN in the presence or absence of various concentrations of competitor peptides indicated in corresponding figure legends and then incubated for 10 min on ice. The bound and free [^125I]ASA-KIN were separated by layering the reaction mixture onto 900 μl of wash buffer (50 mM MES-KOH pH 5.5 with 500 mM sucrose) and centrifuging for 5 min at 100,000 g at 4 °C. After discarding the supernatant, the pellet was irradiated on ice for 20 min with an ultraviolet lamp (model ENF-260C/J (365 nm), Spectronics Co. Ltd) at a distance of 1 cm. The cross-linked membrane proteins were solubilized, immunoprecipitated by using HaloTag antibody and separated by SDS–PAGE on a 7.5% acrylamide gel. The dried gels were exposed to the bio-imaging plate (MS 2,025, Fujifilm) for 2 days at room temperature and the plates were analysed using a bio-imaging analyser (Typhoon FLA 900, GE).

TDR ectodomain (TDR-HT) = target: T2, TDR ectodomain (TDR-HT) (Arabidopsis thaliana, UniProt Q9FII5); experiment: Photo-affinity labelling with [125I]ASA-KIN, TDR; type: binding
T2 construct: applied it to the membrane fractions containing receptor ectodomains expressed in tobacco cells; made in house; host or cells: tobacco BY-2 cells (microsomal fraction)
T2 sequence (Q9FII5 30-652 limits assumed): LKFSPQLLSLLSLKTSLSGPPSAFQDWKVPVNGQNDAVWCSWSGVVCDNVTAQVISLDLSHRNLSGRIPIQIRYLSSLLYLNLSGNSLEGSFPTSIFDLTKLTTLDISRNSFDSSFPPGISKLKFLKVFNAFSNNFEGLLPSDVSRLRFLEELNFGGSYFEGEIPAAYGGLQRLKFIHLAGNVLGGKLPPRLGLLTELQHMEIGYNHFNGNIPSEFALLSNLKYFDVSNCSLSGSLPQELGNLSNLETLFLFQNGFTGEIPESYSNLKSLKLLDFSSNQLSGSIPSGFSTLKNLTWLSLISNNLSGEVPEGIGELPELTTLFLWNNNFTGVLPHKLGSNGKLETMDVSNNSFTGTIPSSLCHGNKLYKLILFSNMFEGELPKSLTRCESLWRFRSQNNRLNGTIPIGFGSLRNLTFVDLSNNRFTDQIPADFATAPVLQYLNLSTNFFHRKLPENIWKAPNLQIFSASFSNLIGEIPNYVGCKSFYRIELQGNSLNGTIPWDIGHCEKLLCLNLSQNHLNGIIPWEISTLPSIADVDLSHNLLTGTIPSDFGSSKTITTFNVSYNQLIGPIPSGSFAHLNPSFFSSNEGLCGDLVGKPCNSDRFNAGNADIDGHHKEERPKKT
Protocol: as §3

[3] = target: T3, CLV2 ectodomain (CLV2-HT) (Arabidopsis thaliana, UniProt O80809); experiment: Photo-affinity labelling with [125I]ASA-KIN, CLV2; type: binding; conditions: 30 nM [125I]ASA-KIN probe, same condition, Supplementary Fig. 6
T3 construct: made in house; host or cells: tobacco BY-2 cells (microsomal fraction)
T3 sequence (O80809 26-686 limits assumed): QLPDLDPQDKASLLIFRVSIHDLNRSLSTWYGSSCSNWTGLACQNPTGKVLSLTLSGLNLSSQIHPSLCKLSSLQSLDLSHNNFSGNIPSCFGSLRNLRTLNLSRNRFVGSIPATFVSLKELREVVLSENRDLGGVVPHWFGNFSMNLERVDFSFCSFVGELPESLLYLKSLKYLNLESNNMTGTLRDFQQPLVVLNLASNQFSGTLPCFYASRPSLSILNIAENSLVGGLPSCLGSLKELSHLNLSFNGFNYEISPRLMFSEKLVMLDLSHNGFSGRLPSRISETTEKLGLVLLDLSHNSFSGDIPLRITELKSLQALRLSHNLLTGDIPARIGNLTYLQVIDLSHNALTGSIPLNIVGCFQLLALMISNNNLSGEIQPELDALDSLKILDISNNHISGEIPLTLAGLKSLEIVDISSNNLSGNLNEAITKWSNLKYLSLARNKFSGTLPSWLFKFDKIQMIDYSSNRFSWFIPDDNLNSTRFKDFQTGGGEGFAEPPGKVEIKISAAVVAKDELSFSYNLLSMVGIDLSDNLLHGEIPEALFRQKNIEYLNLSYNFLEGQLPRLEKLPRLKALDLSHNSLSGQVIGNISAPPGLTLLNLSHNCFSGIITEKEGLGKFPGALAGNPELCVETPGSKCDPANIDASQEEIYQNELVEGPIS
Protocol: as §3

[4] = tested on: root apical meristem (RAM); experiment: Root apical meristem (RAM) morphology; type: in vivo, Arabidopsis thaliana; conditions: 1 μM peptide, 4-day-old, wild type, Fig. 1c
Protocol: as §1

[5] = tested on: Arabidopsis thaliana root; conditions: cited from earlier work
Description: CLV3-like activities have also been reported in other 18 CLE peptides. […] We analysed the structure–activity relationship between CLV3 (Fig. 1a, peptide 1) and CLE25 (Fig. 1a, peptide 2) by swapping the residues at 2nd, 5th, 10th and 12th positions (Fig. 1a, peptide 3–16). […] Although all the chimera peptides shortened the root, only the peptide 15, hereafter call ...

[6] = tested on: shoot apical meristem (SAM); experiment: Shoot apical meristem (SAM) morphology in sections; type: in vivo, Arabidopsis thaliana; conditions: 10 μM peptide, 10-day treatment
Protocol: To observe the SAM, plants were germinated and grown at 22 °C under continuous light on half-strength MS medium supplemented with 1% sucrose and 10 μM peptide/control solution. To make sections, roots and leaves were cut off from 10-day-old seedlings, then fixed in FAA solution (50% ethanol:10% formalin:5% acetic acid in water) and embedded into Technovit 7,100 resin according to the manufacturer's instructions (Heraeus Kulzer). Four-micrometre-thin sections were made using a microtome (RM2235, Leica), stained with 0.05% toluidine blue and mounted in Entellan New (Merck) before observation with a light microscope (Axio Imager.A2, Zeiss).

leaf vein xylem strands = experiment: Leaf vein xylem strand observation; type: in vivo, Arabidopsis thaliana; conditions: 10 μM peptide, 10-day-old clv2-101, Fig. 2c
Protocol: as §2

[7] = 30 nM probe, MES-KOH pH 5.5, 10 min on ice, tobacco BY-2 microsomes, Fig. 3c
[8] = various concentrations of KIN, Supplementary Fig. 7
[9] = wild type, Supplementary Fig. 1

Substance: [(4-azidosalicyl)Lys^2]KIN [ASA-KIN]
- bioactivity compared with KIN, root shortening ([1]; 10 nM-1 µM, Supplementary Fig. 5b): reduced compared with the original KIN
- bioactivity compared with KIN, hypocotyl stele thickening (hypocotyl stele; Supplementary Fig. 5c): reduced compared with the original KIN

Substance: CLE25: endogenously encoded CLE peptide sequence, CLV3-type, synthesized without hydroxyprolines (RKVPNGPDPIHN; CLE25p no hydroxyprolines; UniProt Q8LFL4 58-69, looked up)
- root-shortening activity ([1]; wild type): showed root-shortening activities
- concentration at which bioactivity starts in root shortening assay [1, 9]: ~ 100 nM
- size of the root apical meristem (RAM) [4]: reduced
- effect on stele radial growth / stele width (hypocotyl stele; wild type, 2b): reduce the thickening of vascular tissues in the hypocotyl
- effectiveness in the root-shortening assay [5]: more effective than CLV3

Second part, led by results:

- photo-affinity labelling of CLV1 ectodomain [2, 7]: covalently labelled
- photo-affinity labelling of TDR ectodomain (TDR ectodomain (TDR-HT); [7]): covalently labelled
- interaction with CLV2 ectodomain [3]: no interaction was detected
Substance: [^125I]-radiolabelled [(4-azidosalicyl)Lys^2]KIN [[^125I]ASA-KIN]
- competitive displacement of probe binding to CLV1 by KIN [2, 8]: binds to these receptors in a similar manner
- competitive displacement of probe binding to TDR by KIN (TDR ectodomain (TDR-HT); [8]): binds to these receptors in a similar manner

- competition of [125I]ASA-KIN labelling of CLV1 ([2]; 1,000-fold excess non-radio-labelled peptide, Fig. 3c): competitively inhibited
Substance: CLV3: endogenously encoded 12 amino-acid CLE peptide, chemically synthesized without hydroxyprolines
- root-shortening activity ([1]; wild type): showed root-shortening activities
- response of clv2-101 mutant, root length and RAM size ([1]; clv2-101 mutant, Supplementary Fig. 3a,b): resistant
- dose-response of root growth attenuation ([1]; wild type, 1 nM-1 µM, Supplementary Fig. 1): attenuates the root growth in a lower concentration than CLE25 and KIN
- concentration at which bioactivity starts in root shortening assay [1, 9]: ~ 10 nM
- size of the root apical meristem (RAM) [4]: reduced
- SAM of clv1-101 and clv2-101 mutants after treatment ([6]; loss-of-function mutants, Fig. 2a): maintained
- effect on SAM ([6]; wild type, Fig. 1d): disappeared
- response of clv2-101 mutant to inhibitory activity on stele width (hypocotyl stele; 100 nM peptide, clv2-101 mutant, Fig. 2b): insensitive
- effect on stele width at 100 nM (hypocotyl stele; 100 nM peptide, wild type, 10-day-old, Fig. 1g, 2b): reduced the stele width
- effect on stele radial growth / stele width (hypocotyl stele; wild type, 2b): reduced radial growth of the stele
- lowest concentration with negative effect on stele growth (hypocotyl stele; wild type, 10-day-old, dose-response Fig. 1g): 30 nM
- effect on xylem differentiation in leaf vein (leaf vein xylem strands): not observed

- interaction with CLV1 in competitive displacement assay with [125I]ASA-KIN ([2]; Supplementary Fig. 10): retained the interaction with CLV1
Substance: CLV3-S^11th: CLV3 with H-to-S substitution at the 11th position (RTVPSGPDPLSHH; MCLV3; UniProt Q9XF04 70-82, looked up, variant H11S)
- CLV3-type activity [1]: neither CLV3 nor CLE41 activity
- CLV3-type activity ([1]; listed as peptide 24): even weaker than KIN-1δ
- CLE41-type activity (hypocotyl stele; stele 10 µM, Supplementary Fig. 8): neither CLV3 nor CLE41 activity
